Experimental data as given in publication PMC8950151, “Synthesis and Evaluation of the Antifungal and Toxicological Activity of Nitrofuran Derivatives” (Pharmaceutics, 2022).
Values after ≈ are worked out from the molar mass of the structure shown. Read-outs that look alike come from different tables or passages of the source.

Legend:
[1] = tested on: C. krusei (ATCC 6258); assay: Susceptibility test (CLSI M27-A3 broth microdilution, resazurin readout), MIC90; format: cell-based, Candida krusei; settings: Pichia kudriavzevii
[2] = tested on: Cryptococcus neoformans (H99/ATCC 208821); assay: as above; format: cell-based
[3] = tested on: Histoplasma capsulatum (G217-B/ATCC 26032); assay: microbe, parasite or virus in culture; format: cell-based; settings: ATCC26032, 144 h
[4] = tested on: Candida albicans (ATCC 90028); assay: Susceptibility test (CLSI M27-A3 broth microdilution, resazurin readout), MIC90; format: cell-based; settings: ATCC90028, C. albicans, 24 h, 37 °C
[5] = tested on: C. glabrata (ATCC 90030); assay: as above; format: cell-based, Candida glabrata; settings: Nakaseomyces glabratus, ATCC90030, 24 h, 37 °C
[6] = tested on: T. rubrum (ATCC 28289); assay: Susceptibility assay for dermatophytes (CLSI M38-A2, resazurin), MIC90; format: cell-based; settings: Trichophyton rubrum, ATCC28289, 96 h, 35 °C
[7] = tested on: Trichophyton mentagrophytes (ATCC 11481); assay: as above; format: cell-based; settings: Trichophyton mentagrophytes, ATCC11481, 96 h, T. mentagrophytes, 35 °C, read-out: MIC90
[8] = tested on: Candida albicans (ATCC 90028); assay: Minimum fungicidal concentration (MFC); format: cell-based; settings: ATCC90028, C. albicans
[9] = tested on: C. krusei (ATCC 6258); assay: Minimum fungicidal concentration (MFC); format: cell-based, Candida krusei; settings: Pichia kudriavzevii, ATCC6258
[10] = tested on: C. glabrata (ATCC 90030); assay: Minimum fungicidal concentration (MFC); format: cell-based, Candida glabrata; settings: Nakaseomyces glabratus, ATCC90030
[11] = tested on: Cryptococcus neoformans (H99/ATCC 208821); assay: Minimum fungicidal concentration (MFC); format: cell-based; settings: ATCC208821, C. neoformans
[12] = tested on: Histoplasma capsulatum (G217-B/ATCC 26032); assay: microbe, parasite or virus in culture; format: cell-based; settings: ATCC26032
[13] = tested on: Paracoccidioides brasiliensis (Pb 18); assay: microbe, parasite or virus in culture; format: cell-based; settings: Paracoccidioides brasiliensis
[14] = tested on: T. rubrum (ATCC 28289); assay: Minimum fungicidal concentration (MFC); format: cell-based, Trichophyton rubrum; settings: Trichophyton rubrum, ATCC28289
[15] = tested on: Trichophyton mentagrophytes (ATCC 11481); assay: Minimum fungicidal concentration (MFC); format: cell-based; settings: T. mentagrophytes; for fungistatic / fungicidal profile: MFC versus MIC90; for MFC: Trichophyton mentagrophytes, ATCC11481
[16] = tested on: A549 (ATCC CCL-185) lung epithelial cell line; assay: Cytotoxicity assay in monolayer by resazurin colorimetric method; format: cell-based; settings: Homo sapiens, A549 cells, 72 h
[17] = in vivo; settings: AU37 [glp-4 (bn2) I, sek-1 (km4) X], Caenorhabditis elegans, C. elegans larvae viability
Method: The experiments were carried out with the mutant strain (AU37 [glp-4 (bn2) I; […]]). The strain was maintained on plates containing nematode growth medium (NGM) seeded with Escherichia coli OP50 at 16 °C. The stage of synchronization of young adults at stage L4 was performed for the toxicity test. About 20 larvae were transferred to each well of 96-well plates containing 100 μL of a medium composed of 60% of 50 mM NaCl; 40% BHI broth; 10 mg/mL cholesterol in ethanol; 200 mg/mL ampicillin and 90 mg/mL kanamycin. Then, 100 μL of dilutions of nitrofuran derivatives (showing the best selectivity index against the fungal species) were added. […] Plates were incubated at 25 °C for 24 h. Survival was assessed by the mobility and shape of the nematode (stick-shaped larvae were considered dead, while sinusoidal larvae were considered alive) under an inverted optical microscope on 40× objective lenses.

[18] = in vitro; settings: human

C[C@@H]1[C@H](O)[C@@H](C)/C=C/C=C/C=C/C=C/C=C/C=C/C=C/[C@H](O[C@@H]2O[C@H](C)[C@@H](O)[C@H](N)[C@@H]2O)C[C@@H]2O[C@](O)(C[C@@H](O)C[C@@H](O)[C@H](O)CC[C@@H](O)C[C@@H](O)CC(=O)O[C@H]1C)C[C@H](O)[C@H]2C(=O)O [AmB, amphotericin B, reference compound]
MIC90 ([1]; ATCC6258, C. krusei, 24 h, 37 °C, read-out: MIC90): 1 µg/mL (≈ 1.08 µM)
MIC90 ([2]; ATCC208821, C. neoformans, 48 h, 37 °C, read-out: MIC90): 0.06 µg/mL (≈ 0.0649 µM)
MIC90 [3]: 0.03 µg/mL (≈ 0.0325 µM)

O=C(NCCc1ccccn1)c1ccc([N+](=O)[O-])o1 [Compound 3, 5-nitro-N-(2-(pyridin-2-yl)ethyl)furan-2-carboxamide]
MIC90 [4]: > 250 µg/mL
MIC90 ([1]; ATCC6258, 24 h): 250 µg/mL (≈ 957 µM)
MIC90 [5]: > 250 µg/mL
MIC90 ([2]; ATCC208821, 48 h): 31.2 µg/mL (≈ 120 µM)
MIC90 [3]: 3.9 µg/mL (≈ 14.9 µM)
MIC90 [6]: 125 µg/mL (≈ 478 µM)
MIC90 [7]: 62.5 µg/mL (≈ 239 µM)
MFC [8]: > 250 µg/mL
MFC [9]: > 250 µg/mL
MFC ([10]; C. glabrata, read-out: MFC): > 250 µg/mL
MFC [11]: 62.5 µg/mL (≈ 239 µM)
MFC [12]: 3.9 µg/mL (≈ 14.9 µM)
MFC [13]: 0.98 µg/mL (≈ 3.75 µM)
MFC [14]: 125 µg/mL (≈ 478 µM)
fungistatic / fungicidal profile [15]: fungistatic profile
MFC [15]: 250 µg/mL (≈ 957 µM)
IC50 [16]: 231 µg/mL (≈ 885 µM)
viability at 24 h, 250 µg/mL [17]: 82.5%
IC50 [18]: 250 µg/mL (≈ 957 µM)

O=C(NCc1ccccn1)c1ccc([N+](=O)[O-])o1 [Compound 4]
MIC90 [4]: 250 µg/mL (≈ 1010 µM)
MIC90 ([1]; ATCC6258, 24 h): 250 µg/mL (≈ 1010 µM)
MIC90 [5]: > 250 µg/mL
MIC90 ([2]; ATCC208821, 48 h): 31.2 µg/mL (≈ 126 µM)
MIC90 [3]: 3.9 µg/mL (≈ 15.8 µM)
MIC90 [6]: 125 µg/mL (≈ 506 µM)
MIC90 [7]: 31.2 µg/mL (≈ 126 µM)
MFC [8]: > 250 µg/mL
MFC [9]: 250 µg/mL (≈ 1010 µM)
MFC ([10]; C. glabrata, read-out: MFC): > 250 µg/mL
MFC [11]: 62.5 µg/mL (≈ 253 µM)
MFC [12]: 3.9 µg/mL (≈ 15.8 µM)
MFC [13]: 7.81 µg/mL (≈ 31.6 µM)
MFC [14]: 125 µg/mL (≈ 506 µM)
fungistatic / fungicidal profile [15]: fungistatic profile
MFC [15]: 250 µg/mL (≈ 1010 µM)
IC50 [16]: 29.5 µg/mL (≈ 119 µM)
IC50 [18]: 135 µg/mL (≈ 547 µM)

O=C(NCCCc1ccccc1)c1ccc([N+](=O)[O-])o1 [Compound 5]
MIC90 [4]: 125 µg/mL (≈ 456 µM)
MIC90 ([1]; ATCC6258, 24 h): 62.5 µg/mL (≈ 228 µM)
MIC90 [5]: 125 µg/mL (≈ 456 µM)
MIC90 ([2]; ATCC208821, 48 h): 7.81 µg/mL (≈ 28.5 µM)
MIC ([2]; ATCC208821, 48 h, read-out: MIC90): 3.9 µg/mL (≈ 14.2 µM)
MIC90 [3]: 1.95 µg/mL (≈ 7.11 µM)
MIC90 [6]: 15.7 µg/mL (≈ 57.1 µM)
MIC90 [7]: 31.2 µg/mL (≈ 114 µM)
MFC [8]: 250 µg/mL (≈ 911 µM)
MFC [9]: 62.5 µg/mL (≈ 228 µM)
MFC [10]: 125 µg/mL (≈ 456 µM)
MFC [11]: 15.6 µg/mL (≈ 56.9 µM)
MFC [12]: 1.95 µg/mL (≈ 7.11 µM)
MFC [13]: 31.2 µg/mL (≈ 114 µM)
MFC [14]: 31.2 µg/mL (≈ 114 µM)
MFC [15]: 62.5 µg/mL (≈ 228 µM)
IC50 [16]: 30.1 µg/mL (≈ 110 µM)
viability at 24 h, 250 µg/mL [17]: 85.7%
IC50 [18]: 39.8 µg/mL (≈ 145 µM)

CN(C)CCCNC(=O)c1ccc([N+](=O)[O-])o1 [Compound 6]
MIC90 [4]: > 250 µg/mL
MIC90 ([1]; ATCC6258, 24 h): > 250 µg/mL
MIC90 [5]: > 250 µg/mL
MIC90 ([2]; ATCC208821, 48 h): 250 µg/mL (≈ 1040 µM)
MIC90 [3]: > 250 µg/mL
MIC90 [6]: > 250 µg/mL
MIC90 [7]: > 250 µg/mL
MFC [8]: > 250 µg/mL
MFC [9]: > 250 µg/mL
MFC ([10]; C. glabrata, read-out: MFC): > 250 µg/mL
MFC [11]: 250 µg/mL (≈ 1040 µM)
MFC [12]: > 250 µg/mL
MFC [13]: 31.2 µg/mL (≈ 130 µM)
MFC [14]: > 250 µg/mL
MFC [15]: > 250 µg/mL
IC50 [16]: 13.2 µg/mL (≈ 54.8 µM)
IC50 [18]: 15.6 µg/mL (≈ 64.7 µM)

O=C(NCCc1c[nH]c2ccccc12)c1ccc([N+](=O)[O-])o1 [Compound 7]
MIC90 [4]: 250 µg/mL (≈ 835 µM)
MIC90 ([1]; ATCC6258, 24 h): 250 µg/mL (≈ 835 µM)
MIC90 [5]: > 250 µg/mL
MIC90 ([2]; ATCC208821, 48 h): 62.5 µg/mL (≈ 209 µM)
MIC90 [3]: 0.98 µg/mL (≈ 3.27 µM)
MIC90 [6]: 125 µg/mL (≈ 418 µM)
MIC90 [7]: 125 µg/mL (≈ 418 µM)
MFC [8]: > 250 µg/mL
MFC [9]: > 250 µg/mL
MFC ([10]; C. glabrata, read-out: MFC): > 250 µg/mL
MFC [11]: 62.5 µg/mL (≈ 209 µM)
MFC [12]: 0.98 µg/mL (≈ 3.27 µM)
MFC [13]: 1.95 µg/mL (≈ 6.52 µM)
MFC [14]: > 250 µg/mL
MFC [15]: > 250 µg/mL
IC50 [16]: 8.58 µg/mL (≈ 28.7 µM)
IC50 [18]: 71.2 µg/mL (≈ 238 µM)

O=C(/C=C/c1ccc([N+](=O)[O-])o1)c1ccccc1 [Compound 8]
MIC90 [4]: 7.8 µg/mL (≈ 32.1 µM)
MIC90 ([1]; ATCC6258, 24 h): 250 µg/mL (≈ 1030 µM)
MIC90 [5]: 7.81 µg/mL (≈ 32.1 µM)
MIC90 ([2]; ATCC208821, 48 h): 31.2 µg/mL (≈ 128 µM)
MIC90 [3]: 15.6 µg/mL (≈ 64.2 µM)
MIC90 [6]: 0.98 µg/mL (≈ 4.03 µM)
MIC90 [7]: 0.98 µg/mL (≈ 4.03 µM)
MFC [8]: > 250 µg/mL
MFC [9]: > 250 µg/mL
MFC ([10]; C. glabrata, read-out: MFC): > 250 µg/mL
MFC [11]: 31.2 µg/mL (≈ 128 µM)
MFC [12]: 15.6 µg/mL (≈ 64.2 µM)
MFC [13]: 1.95 µg/mL (≈ 8.02 µM)
MFC [14]: 1.95 µg/mL (≈ 8.02 µM)
MFC [15]: 1.95 µg/mL (≈ 8.02 µM)
IC50 [16]: 53.8 µg/mL (≈ 221 µM)
IC50 [18]: 6.66 µg/mL (≈ 27.4 µM)
